According to patent US20250387400A1, “TYK2 INHIBITORS” (BIOGEN MA INC., priority 2022, published 2025):
Read-outs that look alike come from different tables or passages of the source.

Key:
Assay type in all cases: biochemical
[1] = molecular target: T1, catalytic kinase (JH1) domain of human TYK2 (Homo sapiens, UniProt P29597); experiment: ADP-Glo kinase assay, TYK2 kinase domain
T1 construct: recombinantly generated catalytic kinase (also known as JH1) domain of human JAK1, JAK2, JAK3 and TYK2
T1 sequence (P29597 897-1176 limits assumed): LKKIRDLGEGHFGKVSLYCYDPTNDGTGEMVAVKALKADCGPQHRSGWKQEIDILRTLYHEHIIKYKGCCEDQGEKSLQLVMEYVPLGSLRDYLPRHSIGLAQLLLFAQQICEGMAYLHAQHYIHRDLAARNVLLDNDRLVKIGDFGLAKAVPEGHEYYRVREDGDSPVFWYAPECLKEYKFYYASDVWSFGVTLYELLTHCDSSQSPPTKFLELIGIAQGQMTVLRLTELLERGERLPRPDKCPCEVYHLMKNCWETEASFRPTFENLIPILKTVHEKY
Procedure: (§1) As summarized in Table 3 below, compounds of the disclosure were assessed for their ability to inhibit TYK2, JAK1, JAK2, and JAK3 activity.
(§2) The kinase activity of recombinantly generated catalytic kinase (also known as JH1) domain of human JAK1, JAK2, JAK3 and TYK2 were evaluated in a plate-based assay using the ADP-Glo™ Kinase Assay platform. […] The reactions proceed for 100 minutes and the catalytic activity is quantified by first depleting the unused ATP, converting the hydrolyzed ADP into ATP to generate luminescence in a luciferase reaction; which is the basis of the ADP-Glo platform. Compounds are tested at either 10 μM or 1 μM top concentration, 11 points of 3-fold dilution. The data is normalized and the percent activity versus log concentration of compound is fitted with a 4-parameter logistic model to generate a curve and an IC50 value.

[2] = molecular target: T2, catalytic kinase (JH1) domain of human JAK1 (Homo sapiens, UniProt P23458); experiment: ADP-Glo kinase assay, JAK1 kinase domain
T2 construct: 4 nM of recombinant JAK1 kinase domain is used to phosphorylate
T2 sequence (P23458 875-1153 limits assumed): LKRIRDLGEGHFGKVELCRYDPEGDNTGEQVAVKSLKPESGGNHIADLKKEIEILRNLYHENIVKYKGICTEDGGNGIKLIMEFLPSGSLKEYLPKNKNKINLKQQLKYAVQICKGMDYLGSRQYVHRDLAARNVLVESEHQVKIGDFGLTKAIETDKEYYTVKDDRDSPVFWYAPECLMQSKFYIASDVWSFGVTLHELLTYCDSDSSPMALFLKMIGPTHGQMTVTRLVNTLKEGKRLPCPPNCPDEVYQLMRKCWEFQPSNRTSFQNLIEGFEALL
Procedure: as §1, §2

[3] = molecular target: T3, catalytic kinase (JH1) domain of human JAK2 (Homo sapiens, UniProt O60674); experiment: ADP-Glo kinase assay, JAK2 kinase domain
T3 construct: Catalytic activities of recombinant JAK2, JAK3 and TYK2 kinase domain
T3 sequence (O60674 849-1124 limits assumed): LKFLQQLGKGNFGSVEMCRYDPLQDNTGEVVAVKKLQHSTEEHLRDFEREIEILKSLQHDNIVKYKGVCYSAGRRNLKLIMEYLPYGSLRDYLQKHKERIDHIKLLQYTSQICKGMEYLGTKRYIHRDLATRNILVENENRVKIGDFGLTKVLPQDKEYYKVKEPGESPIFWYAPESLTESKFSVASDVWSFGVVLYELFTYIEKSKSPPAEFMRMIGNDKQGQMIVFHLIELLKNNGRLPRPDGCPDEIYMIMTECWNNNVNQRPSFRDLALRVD
Procedure: as §1, §2

[4] = molecular target: T4, catalytic kinase (JH1) domain of human JAK3 (Homo sapiens, UniProt P52333); experiment: ADP-Glo kinase assay, JAK3 kinase domain
T4 construct: Catalytic activities of recombinant JAK2, JAK3 and TYK2 kinase domain
T4 sequence (P52333 822-1111 limits assumed): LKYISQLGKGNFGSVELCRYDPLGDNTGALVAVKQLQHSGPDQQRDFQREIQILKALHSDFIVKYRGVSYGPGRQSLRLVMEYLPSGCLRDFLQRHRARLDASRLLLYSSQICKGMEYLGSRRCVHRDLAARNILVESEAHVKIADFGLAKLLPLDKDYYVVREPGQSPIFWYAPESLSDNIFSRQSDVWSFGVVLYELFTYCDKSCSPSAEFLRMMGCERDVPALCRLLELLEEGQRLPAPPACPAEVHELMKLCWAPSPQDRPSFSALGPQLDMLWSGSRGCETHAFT
Procedure: as §1, §2

[5] = 2 nM recombinant TYK2 kinase domain, 50 μM JAK3-974 peptide, 10 μM ATP, 100 minutes, read-out: TYK2 biochem IC50 (nM) Mean
[6] = 4 nM recombinant JAK1 kinase domain, 50 μM JAK3-342 peptide, 35 μM ATP, 100 minutes, read-out: JAK1 biochem IC50 (nM) Mean
[7] = 0.2 nM recombinant JAK2 kinase domain, 50 μM JAK3-974 peptide, 15 μM ATP, 100 minutes, read-out: JAK2 biochem IC50 (nM) Mean
[8] = 0.3 nM recombinant JAK3 kinase domain, 50 μM JAK3-974 peptide, 4 μM ATP, 100 minutes, read-out: JAK3 biochem IC50 (nM) Mean

| IC50 [1, 5] [nM] | IC50 [2, 6] [nM] | IC50 [3, 7] [nM] | IC50 [4, 8] [nM] | Structure (SMILES) | IC50 [1] [nM] | IC50 [2] [nM] | IC50 [3] [nM] | IC50 [4] [nM] |
| --- | --- | --- | --- | --- | --- | --- | --- | --- |
|  |  |  |  | Cn1cc(-c2cc3c(N4CC5CCC(C4)N5[C@H]4C[C@@H](S(C)(=O)=O)C4)ccnn3c2)cn1 [Example 36, 6-(1-methyl-1H-pyrazol-4-yl)-4-(8-((1s,3s)-3-(methylsulfonyl)cyclobutyl)-3,8-diazabicyclo[3.2.1]octan-3-yl)pyrrolo[1,2-b]pyridazine] | 50.5 | 435 | 240 | 1700 |
| 830 | 7100 | 3150 | > 10000 | Cn1cc(-c2nc3c(N4CC5CCC(C4)N5[C@H]4CC[C@H]4O)ccnc3[nH]2)cn1 (racemic) [Example 8, (1RS,2SR)-2-(3-(2-(1-methyl-1H-pyrazol-4-yl)-3H-imidazo[4,5-b]pyridin-7-yl)-3,8-diazabicyclo[3.2.1]octan-8-yl)cyclobutan-1-ol] |  |  |  |  |
|  |  |  |  | Cc1cc(-c2cc3c(N4CC5CCC(C4)N5[C@H]4C[C@H](C#N)C4)ccnn3c2)on1 [Example 58, (1R,3r)-3-(3-(6-(3-methylisoxazol-5-yl)pyrrolo[1,2-b]pyridazin-4-yl)-3,8-diazabicyclo[3.2.1]octan-8-yl)cyclobutane-1-carbonitrile] | 40.5 | 795 | 385 | 3450 |
| 82 | 1700 | 900 | 3550 | Cn1cc(-c2cc3c(N4CC5CCC(C4)N5[C@H]4C[C@@H](CC#N)C4)ccnn3c2)cn1 [Example 44, 2-((1s,3s)-3-(3-(6-(1-methyl-1H-pyrazol-4-yl)pyrrolo[1,2-b]pyridazin-4-yl)-3,8-diazabicyclo[3.2.1]octan-8-yl)cyclobutyl)acetonitrile] |  |  |  |  |
|  |  |  |  | COc1cc(-c2cc3c(N4CC5CCC(C4)N5C4CC(C#N)C4)ccnc3[nH]2)ccn1 (stereo not shown) [Example 13, 3-(3-(2-(2-methoxypyridin-4-yl)-1H-pyrrolo[2,3-b]pyridin-4-yl)-3,8-diazabicyclo[3.2.1]octan-8-yl)cyclobutane-1-carbonitrile] | 4.05 | 7.9 | 14 | 82 |
|  |  |  |  | Cn1cc(-c2cc3c(N4CC5CCC(C4)N5C4CC5(COC5)C4)ccnn3c2)cn1 [Example 33, 4-(8-(2-oxaspiro[3.3]heptan-6-yl)-3,8-diazabicyclo[3.2.1]octan-3-yl)-6-(1-methyl-1H-pyrazol-4-yl)pyrrolo[1,2-b]pyridazine] | 42.5 | 1350 | 740 | 6200 |
| 17.5 | 315 | 117 | 550 | Cn1cc(-c2cc3c(N4CC5CCC(C4)N5[C@H]4C[C@@H](C#N)C4)ccnc3[nH]2)cn1 [Example 16, (1S,3s)-3-(3-(2-(1-methyl-1H-pyrazol-4-yl)-1H-pyrrolo[2,3-b]pyridin-4-yl)-3,8-diazabicyclo[3.2.1]octan-8-yl)cyclobutane-1-carbonitrile] |  |  |  |  |
| 4.7 | 89 | 31.5 | 190 | Cn1cc(-c2cc3c(N4CC5CCC(C4)N5[C@H]4C[C@@](C)(C#N)C4)ccnn3c2)cn1 [Example 35, (1s,3s)-1-methyl-3-(3-(6-(1-methyl-1H-pyrazol-4-yl)pyrrolo[1,2-b]pyridazin-4-yl)-3,8-diazabicyclo[3.2.1]octan-8-yl)cyclobutane-1-carbonitrile] |  |  |  |  |
| 715 | 4200 | 5700 | > 10000 | COc1cc(-c2cc3c(N4CC5CCC(C4)N5C4COC4)ccnn3c2)cnn1 [Example 53, 6-(6-methoxypyridazin-4-yl)-4-(8-(oxetan-3-yl)-3,8-diazabicyclo[3.2.1]octan-3-yl)pyrrolo[1,2-b]pyridazine] |  |  |  |  |
|  |  |  |  | Cn1cc(-c2cc3c(N4CC5CCC(C4)N5[C@@H]4C[C@H](C#N)C4(C)C)ccnn3c2)cn1 (single isomer, unassigned) [Example 48] | 35 | 925 | 180 | 1350 |
| 14.5 | 310 | 185 | 2150 | Cn1cc(-c2cc3c(N4CC5CCC(C4)N5C4COC4)ccnn3c2)cn1 [Example 23, 6-(1-methyl-1H-pyrazol-4-yl)-4-(8-(oxetan-3-y1)-3,8-diazabicyclo[3.2.1]octan-3-yl)pyrrolo[1,2-b]pyridazine] |  |  |  |  |
|  |  |  |  | CO[C@H]1CC[C@@H]1N1C2CCC1CN(c1ccnn3cc(-c4cnn(C)c4)cc13)C2 (racemic) [Example 51, Rac-4-(8-((1S,2S)-2-methoxycyclobutyl)-3,8-diazabicyclo[3.2.1]octan-3-yl)-6-(1-methyl-1H-pyrazol-4-yl)pyrrolo[1,2-b]pyridazine] | 745 | > 10000 | 6050 | > 10000 |
| 2.8 | 36.7 | 20 | 67.7 | Cn1cc(-c2cc3c(N4CC5CCC(C4)N5C4CC(C#N)C4)ccnc3[nH]2)cn1 [Example 17, (1R,3r)-3-(3-(2-(1-methyl-1H-pyrazol-4-yl)-1H-pyrrolo[2,3-b]pyridin-4-yl)-3,8-diazabicyclo[3.2.1]octan-8-yl)cyclobutane-1-carbonitrile] |  |  |  |  |
|  |  |  |  | Cn1cc(-c2cc3c(N4CC5CCC(C4)N5[C@H]4C[C@H](S(C)(=O)=O)C4)ccnn3c2)cn1 [Example 37, 6-(1-methyl-1H-pyrazol-4-yl)-4-(8-((1r,3r)-3-(methylsulfonyl)cyclobutyl)-3,8-diazabicyclo[3.2.1]octan-3-yl)pyrrolo[1,2-b]pyridazine] | 310 | 4300 | 1450 | > 10000 |
| 19 | 230 | 380 | 4250 | COC1CC(N2C3CCC2CN(c2ccnn4cc(-c5cnn(C)c5)cc24)C3)C1 (stereo not shown) [Example 24, 4-(8-(3-methoxycyclobutyl)-3,8-diazabicyclo[3.2.1]octan-3-yl)-6-(1-methyl-1H-pyrazol-4-yl)pyrrolo[1,2-b]pyridazine] |  |  |  |  |
| 23 | 720 | 295 | 2550 | Cn1cc(-c2cc3c(N4CC5CCC(C4)N5[C@H]4C[C@](C)(C#N)C4)ccnn3c2)cn1 [Example 34, (1r,3r)-1-methyl-3-(3-(6-(1-methyl-1H-pyrazol-4-yl)pyrrolo[1,2-b]pyridazin-4-yl)-3,8-diazabicyclo[3.2.1]octan-8-yl)cyclobutane-1-carbonitrile] |  |  |  |  |
| 505 | > 10000 | 7350 | > 10000 | Cn1cc(-c2cc3c(N4CC5CCC(C4)N5[C@H]4CC[C@H]4O)ccnn3c2)cn1 (racemic) [Example 50, rac-(1R,2S)-2-(3-(6-(1-methyl-1H-pyrazol-4-yl)pyrrolo[1,2-b]pyridazin-4-yl)-3,8-diazabicyclo[3.2.1]octan-8-yl)cyclobutan-1-ol] |  |  |  |  |
|  |  |  |  | Cn1cc(-c2nc3c(N4CC5CCC(C4)N5C4COC4)ccnc3[nH]2)cn1 [Example 9, 2-(1-methyl-1H-pyrazol-4-yl)-7-(8-(oxetan-3-yl)-3,8-diazabicyclo[3.2.1]octan-3-yl)-3H-imidazo[4,5-b]pyridine] | 42.5 | 275 | 220 | > 1000 |

| Structure (SMILES) | IC50 [1, 5] [nM] | IC50 [2, 6] [nM] | IC50 [3, 7] [nM] | IC50 [4, 8] [nM] | IC50 [1] [nM] | IC50 [2] [nM] | IC50 [3] [nM] | IC50 [4] [nM] |
| --- | --- | --- | --- | --- | --- | --- | --- | --- |
| Cn1cc(-c2nc3c(N4CC5CCC(C4)N5[C@H]4C[C@@](C)(C#N)C4)ccnc3[nH]2)cn1 [Example 2, (1S,3s)-1-methyl-3-(3-(2-(1-methyl-1H-pyrazol-4-yl)-3H-imidazo[4,5-b]pyridin-7-yl)-3,8-diazabicyclo[3.2.1]octan-8-yl)cyclobutane-1-carbonitrile] | 1.2 | 14.7 | 9 | 68 |  |  |  |  |
